Results taken from BindingDB's records for doi:10.1021/bi9007287 (Max Planck Research, 2009).

Legend:
[1] = biological target: Peptidyl-prolyl cis-trans isomerase A (Homo sapiens, UniProt P62937); experiment: PPIase Assay; settings: pH 7.8; 5 °C
[2] = biological target: Peptidyl-prolyl cis-trans isomerase B (Human, UniProt P23284); experiment: PPIase Assay; settings: pH 7.8; 5 °C
[3] = biological target: Peptidyl-prolyl cis-trans isomerase H (Homo sapiens, UniProt O43447); experiment: PPIase Assay; settings: pH 7.8; 5 °C
Sequence of Peptidyl-prolyl cis-trans isomerase H (O43447 whole entry): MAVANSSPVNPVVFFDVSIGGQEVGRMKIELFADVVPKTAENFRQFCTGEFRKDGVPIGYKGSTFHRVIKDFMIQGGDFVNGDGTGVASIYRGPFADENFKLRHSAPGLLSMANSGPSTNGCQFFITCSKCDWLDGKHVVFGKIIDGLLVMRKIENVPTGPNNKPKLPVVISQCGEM

[4] = biological target: T1, Peptidyl-prolyl cis-trans isomerase-like 1 (Homo sapiens, UniProt Q9Y3C6); experiment: PPIase Assay; settings: pH 7.8; 5 °C
T1 sequence (Q9Y3C6 whole entry): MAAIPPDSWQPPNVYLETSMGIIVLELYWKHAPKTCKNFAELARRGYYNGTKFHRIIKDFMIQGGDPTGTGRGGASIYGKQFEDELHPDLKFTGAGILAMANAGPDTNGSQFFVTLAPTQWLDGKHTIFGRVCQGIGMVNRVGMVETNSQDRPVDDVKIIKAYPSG

[5] = biological target: Peptidyl-prolyl cis-trans isomerase C (Mus musculus) (UniProt P30412); experiment: PPIase activity assay were performed at 283 K in quartz cuvettes with a path length of 1 cm under vigorous stirring with a Hewlett-Packard 8453A UV-vis spectrophotometer in 35 mM HEPES buffer (pH 7.8).
Sequence of Peptidyl-prolyl cis-trans isomerase C (Mus musculus) (P30412 whole entry, looked up): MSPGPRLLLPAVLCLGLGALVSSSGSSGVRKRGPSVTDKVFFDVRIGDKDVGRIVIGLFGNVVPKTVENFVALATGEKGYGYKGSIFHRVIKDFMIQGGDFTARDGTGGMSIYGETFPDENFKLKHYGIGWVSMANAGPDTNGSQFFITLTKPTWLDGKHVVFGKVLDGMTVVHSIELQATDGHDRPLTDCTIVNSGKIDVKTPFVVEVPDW

Sequence of Peptidyl-prolyl cis-trans isomerase B (P23284 whole entry): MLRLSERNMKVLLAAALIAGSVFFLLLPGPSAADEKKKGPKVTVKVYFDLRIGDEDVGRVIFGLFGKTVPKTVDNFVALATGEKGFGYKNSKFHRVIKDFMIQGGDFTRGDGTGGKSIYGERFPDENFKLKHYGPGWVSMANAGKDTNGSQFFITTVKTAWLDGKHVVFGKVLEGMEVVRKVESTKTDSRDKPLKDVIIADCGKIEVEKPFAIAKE
Sequence of Peptidyl-prolyl cis-trans isomerase A (P62937 whole entry): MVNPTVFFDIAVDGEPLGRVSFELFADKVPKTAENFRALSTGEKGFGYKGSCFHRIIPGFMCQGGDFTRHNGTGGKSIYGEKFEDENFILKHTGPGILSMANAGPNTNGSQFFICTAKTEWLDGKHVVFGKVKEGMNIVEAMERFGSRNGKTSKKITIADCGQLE

SMILES | Ki [1] [µM] | Ki [2] [µM] | Ki [3] [µM] | Ki [4] [µM] | Ki [5] [µM]
COc1ccc2c(c1)C(=O)C1(Cc3ccccc3C1)O2 [Benzofuranone, 9] | > 100 | 63 | – | – | –
O=C(c1cc(-c2cc(F)cc([N+](=O)[O-])c2O)cc([N+](=O)[O-])c1O)C1CCc2ccccc21 (centres undefined) [Aryl 1-indanylketone, 1] | 0.52 | > 100 | > 100 | 29 | > 100
COc1ccc(C(F)(F)F)cc1C(=O)C1CCc2ccccc21 (centres undefined) [Aryl 1-indanylketone, 5] | 10 | > 100 | – | – | –
COc1ccc(F)cc1-c1cc(N)c(O)c(C(=O)C2CCc3ccccc32)c1 (centres undefined) [Aryl 1-indanylketone, 3] | 1.7 | 8.6 | – | – | –
COc1ccc(F)cc1C(=O)C1(C)CCc2ccccc21 (centres undefined) [Aryl 1-indanylketone, 6] | > 100 | > 100 | – | – | –
Nc1cc(F)cc(-c2ccc(O)c(C(=O)C3CCc4ccccc43)c2)c1O (centres undefined) [Aryl 1-indanylketone, 2] | 0.3 | 12 | > 100 | > 100 | > 100
COc1ccc2c(c1)C1(CC(C)c3ccccc31)C(=O)O2 (centres undefined) [Benzofuranone, 7] | 21 | > 100 | – | – | –
COc1ccc(-c2ccc(OC(F)(F)F)cc2)cc1C(=O)C1CCc2ccccc21 (centres undefined) [Aryl 1-indanylketone, 4] | 1.2 | 2.1 | – | – | –
O=C1Oc2ccccc2C12Cc1ccccc1C2 [Benzofuranone, 8] | > 100 | > 100 | – | – | –
